Assay results from patent publication US20220119511A1, “COMPOSITIONS AND METHODS FOR TREATMENT OF DIABETES, OBESITY, HYPER-CHOLESTEROLEMIA, AND ATHEROSCLEROSIS BY INHIBITION OF SAM68” (The UAB Research Foundation, priority 2020, published 2022).
Residues, ends and D or L forms follow the SMILES beside them. *: point of attachment. Cbz = O=C(OCc1ccccc1)*

T1: CRTC2 (CREB-regulated transcriptional coactivator 2), endogenous, in WT mouse primary hepatocytes (mouse, UniProt Q3U182 2-692)
T1 construct: Endogenous protein immunoprecipitated with the CRTC2 antibody (sc-271912); also called endogenous CRTC2
T1 sequence (looked up): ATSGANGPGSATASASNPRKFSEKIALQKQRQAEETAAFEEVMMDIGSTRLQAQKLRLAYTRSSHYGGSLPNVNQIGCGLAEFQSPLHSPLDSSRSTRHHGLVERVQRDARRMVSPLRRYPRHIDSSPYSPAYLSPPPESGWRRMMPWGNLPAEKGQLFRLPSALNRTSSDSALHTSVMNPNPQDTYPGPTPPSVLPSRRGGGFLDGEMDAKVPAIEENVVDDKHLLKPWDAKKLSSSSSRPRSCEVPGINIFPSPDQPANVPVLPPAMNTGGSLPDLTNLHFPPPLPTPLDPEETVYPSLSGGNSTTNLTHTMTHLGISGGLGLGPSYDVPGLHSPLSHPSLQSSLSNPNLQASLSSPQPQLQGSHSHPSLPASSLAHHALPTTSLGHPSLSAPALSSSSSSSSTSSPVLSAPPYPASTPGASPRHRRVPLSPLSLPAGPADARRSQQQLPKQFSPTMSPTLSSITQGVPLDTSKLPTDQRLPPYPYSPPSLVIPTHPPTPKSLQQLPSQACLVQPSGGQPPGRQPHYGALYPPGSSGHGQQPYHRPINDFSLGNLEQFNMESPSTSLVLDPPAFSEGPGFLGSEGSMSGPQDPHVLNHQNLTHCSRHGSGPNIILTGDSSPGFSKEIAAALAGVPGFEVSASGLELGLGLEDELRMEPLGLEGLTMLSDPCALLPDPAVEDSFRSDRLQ

B1: Sam68 (Src-associated-in-mitosis-of-68kDa), endogenous, in WT mouse primary hepatocytes (other, UniProt Q60749 1-443, looked up)
chain: MQRRDDPASRLTRSSGRSCSKDPSGAHPSVRLTPSRPSPLPHRPRGGGGGPRGGARASPATQPPPLLPPSTPGPDATVVGSAPTPLLPPSATAAVKMEPENKYLPELMAEKDSLDPSFTHAMQLLSVEIEKIQKGESKKDDEENYLDLFSHKNMKLKERVLIPVKQYPKFNFVGKILGPQGNTIKRLQEETGAKISVLGKGSMRDKAKEEELRKGGDPKYAHLNMDLHVFIEVFGPPCEAYALMAHAMEEVKKFLVPDMMDDICQEQFLELSYLNGVPEPSRGRGVSVRGRGAAPPPPPVPRGRGVGPPRGALVRGTPVRGSITRGATVTRGVPPPPTVRGAPTPRARTAGIQRIPLPPTPAPETYEDYGYDDTYAEQSYEGYEGYYSQSQGESEYYDYGHGELQDSYEAYGQDDWNGTRPSLKAPPARPVKGAYREHPYGRY
notes: Endogenous protein co-immunoprecipitated from mouse primary hepatocytes; also called KHDRBS1

Experiments:
CRTC2 = CRTC2 protein levels in primary hepatocytes treated with proteasome or autophagy inhibitors (Western blot); type: cell-based, mouse; conditions: up to 16 h (MG132 20 μM, BZM 100 nM) or up to 8 h (bafilomycin 100 nM)
Method: FIGS. 7A-7J show Sam68 binds CRTC2 and inhibits CRTC2 ubiquitination and proteosomal degradation. In FIG. 7A, WT and Sam68^−/− mice were treated with glucagon (30 μg/kg) or PBS for 10 min; then, nuclear and cytoplasmic proteins were isolated from the liver tissue, and Sam68 protein expression was evaluated via Western blot. In FIG. 7B, CRTC2 was immunoprecipitated from WT and Sam68^−/− primary hepatocytes, and then CRTC2, Sam68, and CREB protein was detected in the precipitates via immunoblot. In FIG. 7C, 293T cells were co-transfected with plasmids coding for HA-tagged Sam68 and Flag-tagged CRTC2; 48 h later, CRTC2 was immunoprecipitated from the cells with anti-Flag, and Sam68 was detected in the precipitates by immunoblotting with anti-HA. In FIG. 7D, 293T cells were co-transfected with plasmids coding for Flag-tagged CRTC2 and HA-tagged WT Sam68 or HA-tagged mutations of Sam68 lacking the N-terminal domain (ΔN), the CK domain (ΔCK), proline motifs 3 and 4 (ΔP3-P4), or the C-terminal domain (ΔC); 48 h later, Sam68 and the Sam68 mutants were immunoprecipitated with anti-HA, and CRTC2 was detected in the precipitates by immunoblotting with anti-Flag. […] P62/SQSTM1 and LC3BI/II protein levels were also evaluated to indicate autophagic activity. […]

[1] = target: T1, CRTC2 (CREB-regulated transcriptional …); assay: co-IP from mouse primary hepatocytes (FIG. 7B)
Method: In FIG. 7A, WT and Sam68^{-/-} mice were treated with glucagon (30 μg/kg) or PBS for 10 min; then, nuclear and cytoplasmic proteins were isolated from the liver tissue, and Sam68 protein expression was evaluated via Western blot. In FIG. 7B, CRTC2 was immunoprecipitated from WT and Sam68^{-/-} primary hepatocytes, and then CRTC2, Sam68, and CREB protein was detected in the precipitates via immunoblot. […] In FIG. 7E, WT and Sam68^{-/-} primary hepatocytes were treated with cycloheximide (100 μM) for 0-8 h to block new protein synthesis; then, CRTC2 protein levels were evaluated by Western blot, quantified via Image J software, normalized to β-actin levels, and reported as the proportion of the amount present at 0 h. WT and Sam68^{-/-} primary hepatocytes were treated with cycloheximide and (FIG. 7E) MG132 (20 μM), (FIG. 7F) BZM (100 nM), or (FIG. 7G) bafilomycin (100 nM) for 0-16 (MG132, BZM) or 0-8 (bafilomycin) and CRTC2 protein levels were evaluated by Western blot, quantified via Image J software, normalized to β-actin levels, and reported as the proportion of the amount present in WT cells at 0 h. P62/SQSTM1 and LC3BI/II protein levels were also evaluated to indicate autophagic activity. […]

| Molecule | CRTC2 protein levels in Sam68−/− hepatocytes during treatment (CRTC2) | binding result [1] |
| --- | --- | --- |
| bafilomycin | unchanged |  |
| CC(C)C[C@@H](C=O)NC(=O)[C@H](CC(C)C)NC(=O)[C@H](CC(C)C)NC(=O)OCc1ccccc1 [MG132] (Cbz-Leu-Leu-Leu-aldehyde) | approximately doubled |  |
| B1 |  | binds |
